In ChEMBL document CHEMBL1150007, “Novel indolactam-based inhibitors of matrix metalloproteinases” (Bioorg Med Chem Lett, 1995) one finds Ki data, which are given here for 5 compounds.

As usually defined, the Ki is a dissociation constant, usually derived from enzyme kinetics or from competition with a known ligand. Read a high Ki as weaker binding.

One assay addresses T1, Interstitial collagenase (Homo sapiens, UniProt P03956).
T1 sequence (P03956 whole entry): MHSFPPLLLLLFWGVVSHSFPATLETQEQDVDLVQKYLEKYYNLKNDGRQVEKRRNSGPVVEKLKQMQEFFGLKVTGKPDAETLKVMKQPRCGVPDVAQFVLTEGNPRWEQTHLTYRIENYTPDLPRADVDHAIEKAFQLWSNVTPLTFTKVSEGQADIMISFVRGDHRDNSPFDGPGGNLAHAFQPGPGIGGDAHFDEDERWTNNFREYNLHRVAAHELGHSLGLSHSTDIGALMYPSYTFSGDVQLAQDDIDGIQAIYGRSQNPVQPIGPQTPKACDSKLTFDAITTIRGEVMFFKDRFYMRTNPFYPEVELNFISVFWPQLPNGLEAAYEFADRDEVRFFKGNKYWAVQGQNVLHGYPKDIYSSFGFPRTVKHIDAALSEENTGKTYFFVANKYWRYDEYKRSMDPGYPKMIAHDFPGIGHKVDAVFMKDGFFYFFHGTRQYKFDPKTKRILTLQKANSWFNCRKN
Briefly: Inhibition of human fibroblast collagenase, matrix metalloprotease-1.

A further assay has as its target Neutrophil collagenase (Homo sapiens, UniProt P22894). Briefly: Inhibition of human Matrix metalloprotease-8.
In assay [1] the target is 72 kDa type IV collagenase (Homo sapiens, UniProt P08253). Briefly: Inhibition of human […], matrix metalloprotease-2.
Sequence of 72 kDa type IV collagenase (P08253 whole entry): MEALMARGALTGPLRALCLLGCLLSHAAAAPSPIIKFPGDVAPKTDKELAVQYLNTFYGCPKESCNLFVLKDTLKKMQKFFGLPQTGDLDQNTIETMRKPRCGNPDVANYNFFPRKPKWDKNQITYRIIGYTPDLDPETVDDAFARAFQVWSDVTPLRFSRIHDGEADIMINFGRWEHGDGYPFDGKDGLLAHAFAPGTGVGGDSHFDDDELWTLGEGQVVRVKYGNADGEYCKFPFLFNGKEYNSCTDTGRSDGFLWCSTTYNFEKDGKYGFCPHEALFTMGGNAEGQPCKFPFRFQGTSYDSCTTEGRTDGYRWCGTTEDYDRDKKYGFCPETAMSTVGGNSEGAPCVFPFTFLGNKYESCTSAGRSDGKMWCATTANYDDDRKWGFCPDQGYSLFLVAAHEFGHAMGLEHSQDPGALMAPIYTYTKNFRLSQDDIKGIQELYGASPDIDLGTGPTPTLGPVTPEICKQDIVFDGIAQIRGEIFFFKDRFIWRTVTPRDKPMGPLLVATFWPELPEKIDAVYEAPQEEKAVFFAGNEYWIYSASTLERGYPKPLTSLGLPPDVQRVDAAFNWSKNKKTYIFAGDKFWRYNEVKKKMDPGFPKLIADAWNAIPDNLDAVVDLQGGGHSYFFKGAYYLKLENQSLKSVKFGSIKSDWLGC
In the next assay the target is T2, Matrilysin (Homo sapiens, UniProt P09237).
T2 sequence (P09237 whole entry): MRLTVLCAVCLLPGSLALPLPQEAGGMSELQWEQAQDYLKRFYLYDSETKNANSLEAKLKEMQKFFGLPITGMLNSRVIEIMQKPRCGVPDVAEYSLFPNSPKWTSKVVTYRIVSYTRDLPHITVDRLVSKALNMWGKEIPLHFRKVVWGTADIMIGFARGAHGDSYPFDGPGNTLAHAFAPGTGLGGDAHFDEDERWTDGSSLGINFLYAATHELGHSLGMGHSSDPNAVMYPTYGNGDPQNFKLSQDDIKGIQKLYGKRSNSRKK
The assay can be described thus: Inhibition of Matrix metalloprotease-7.

The next assay deals with Stromelysin-1 (Homo sapiens, UniProt P08254). The assay can be described thus: Inhibition of human fibroblast stromelysin, matrix metalloprotease-3.
Sequence of Stromelysin-1 (P08254 whole entry): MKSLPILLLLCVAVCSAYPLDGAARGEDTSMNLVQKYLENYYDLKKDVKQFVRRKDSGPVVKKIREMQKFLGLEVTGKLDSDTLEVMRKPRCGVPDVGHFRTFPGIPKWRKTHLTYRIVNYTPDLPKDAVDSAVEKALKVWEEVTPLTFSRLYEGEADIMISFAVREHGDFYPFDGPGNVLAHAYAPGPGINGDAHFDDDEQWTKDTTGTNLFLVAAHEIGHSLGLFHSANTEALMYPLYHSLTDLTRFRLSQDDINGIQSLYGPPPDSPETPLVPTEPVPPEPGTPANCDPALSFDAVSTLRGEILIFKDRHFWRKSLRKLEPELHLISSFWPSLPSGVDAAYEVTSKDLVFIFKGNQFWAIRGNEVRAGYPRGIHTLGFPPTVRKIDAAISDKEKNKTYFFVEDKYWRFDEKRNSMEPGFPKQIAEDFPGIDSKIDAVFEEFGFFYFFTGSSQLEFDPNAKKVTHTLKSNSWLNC

The structures appear in SMILES notation.

Sequence of Neutrophil collagenase (P22894 whole entry): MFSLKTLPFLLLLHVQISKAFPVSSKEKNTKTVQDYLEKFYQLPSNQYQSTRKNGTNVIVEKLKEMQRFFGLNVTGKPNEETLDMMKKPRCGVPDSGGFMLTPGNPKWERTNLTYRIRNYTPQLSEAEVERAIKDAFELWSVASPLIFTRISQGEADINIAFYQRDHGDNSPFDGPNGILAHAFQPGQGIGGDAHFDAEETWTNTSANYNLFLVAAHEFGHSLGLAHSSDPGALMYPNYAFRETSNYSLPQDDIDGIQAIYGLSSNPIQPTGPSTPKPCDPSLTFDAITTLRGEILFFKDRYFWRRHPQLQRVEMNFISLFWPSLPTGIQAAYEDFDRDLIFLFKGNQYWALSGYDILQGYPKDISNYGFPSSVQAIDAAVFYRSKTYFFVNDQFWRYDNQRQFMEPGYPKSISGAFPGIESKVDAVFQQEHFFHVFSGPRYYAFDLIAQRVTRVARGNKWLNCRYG

In the case of `CCCCCCNC(=O)[C@H](Cc1c[nH]c2ccccc12)NC(=O)[C@@H](CC(=O)NO)CC(C)C`, the Ki at Interstitial collagenase was determined as 3 nM; at Neutrophil collagenase, 0.5 nM; in assay [1], 0.3 nM.

Turning to `CCCCCCNC(=O)[C@H](Cc1c[nH]c2ccccc12)NC(=O)[C@@H](CC(=O)O)CC(C)C`, the Ki is 171 nM at Interstitial collagenase, above 620 nM at Matrilysin, 163 nM at Neutrophil collagenase and 472 nM in assay [1].

Consider `CCCCCCNC(=O)[C@H](Cc1c[nH]c2ccccc12)NC(=O)[C@H](CC(C)C)CP(=O)(O)CSc1ccc2ccccc2n1`, for which the Ki on Interstitial collagenase worked out at 432 nM; at Stromelysin-1 it was 6580 nM; at Neutrophil collagenase, 102 nM; in assay [1] it was 300 nM.

With `CC(C)C[C@H](CP(=O)(O)CSc1ccc2ccccc2n1)C(=O)N[C@H]1Cc2cn(c3ccccc23)CCCCCCNC1=O`, the Ki amounted to 5 nM at Interstitial collagenase, 806 nM at Stromelysin-1, 4 nM at Neutrophil collagenase and 14 nM in assay [1].

`CNC(=O)[C@H](Cc1ccccc1)NC(=O)[C@H](CC(C)C)[C@H](CSc1cccs1)C(=O)O` returned a Ki on Interstitial collagenase of 1500 nM. This lies in the single-digit micromolar range.
